The record followed here is paper PMC7589783, “Newly Synthesized Imino-Derivatives Analogues of Resveratrol Exert Inhibitory Effects in Breast Tumor Cells” (International Journal of Molecular Sciences, 2020).

Molecules are shown by their SMILES. Several values for one entry are separate records, joined by “and”; a condition that tells them apart may be missing. Identical values can stand only once. Entries after “also recorded” stand apart in the source; their conditions may differ. Like-named read-outs stand apart in the source and are kept apart here.

The nature of data set [1]: In vitro bioavailability, dialysis tubing procedure with pepsin and pancreatin digestion. It is filed as in vitro ADME. The note with it: for In vitro bioavailability (%) 4 h pH 7.0: after pancreatin digestion (4 h); for In vitro bioavailability (%) 2 h pH 1.0: after pepsin digestion (2 h); for In vitro bioavailability (%) Total 6 h: total after pepsin (2 h) and pancreatin (4 h) digestions. The procedure: In vitro bioavailability studies of compounds 3, 4 (the salt of compound 3) and resveratrol were performed in solutions simulating gastric and intestinal environment through a modified version of the traditional technique of dialysis membranes. The method of the dialysis membrane is divided in two enzymatic digestion phases: A first phase in which the action of pepsin occurs and a second phase in which participates the pancreatin (see experimental section). Bioavailability is defined as the percentage of analyte recovered in the bio-accessible fraction after in vitro digestion, in relation to the original undigested sample, as calculated according to the following equation [32]:Bioavailability (%) = (Bioaccessible content/Total content) × 100
In vitro bioavailability studies were performed according to the dialysis tubing procedure as previously reported in literature.
For this purpose, 100 µL of each tested compound (10 mM in DMSO) were employed and the concentration of each sample was determined using a UV/VIS spectrometer V-530 (Jasco, Cremella (LC), Italy).
The percentages were calculated according to the equations obtained from the prepared calibration curves at pH 1.0 and 7.0, respectively, for the two tested molecules.
The experiments were carried out in triplicate.

The test system of data set [2] is MCF-7 breast cancer cells. The experiment in a line: MTT cell viability assay in MCF-7 cells. In kind it is cell-based. To be noted: Homo sapiens. As to the method: (§1) SkBr3 cells were maintained in RPMI-1640 (Life Technologies, Milan, Italy) without phenol red, supplemented with 5% fetal bovine serum (FBS) and 100 μg/mL penicillin/streptomycin (Life Technologies, Milan, Italy). MCF-7 and HEK-293 cells were maintained in DMEM (Dulbecco’s modified Eagle’s medium) (Life Technologies, Milan, Italy) with phenol red, with a supplement of 5% FBS and 100 μg/mL of penicillin/streptomycin.
(§2) The effects of each compound on cell viability were determined by the MTT [3-(4,5-dimethylthiazol-2-yl)-2,5-diphenyltetrazolium bromide] assay, as previously reported. Cells were seeded in quadruplicate in 96-well plates in regular growth medium and grown until 70–80% confluence. […] Relative cell viability was determined by MTT assay according to the manufacturer’s protocol (Sigma-Aldrich, Milan, Italy). Mean absorbance for each drug dose was expressed as a percentage of the control untreated well absorbance and plotted versus drug concentration. IC50 values represent the drugs concentration able to reduce the cells viability of 50% respect to the untreated control cells (vehicle).

In data set [3] the test system is SkBr3 breast cancer cells. Kind of data set: MTT cell viability assay in SkBr3 cells. It is filed as cell-based. To be noted: Homo sapiens. The procedure:
as §1, §2

The test system of data set [4] is human embryonic kidney 293 (HEK293) cells. The experiment in a line: MTT cell viability assay in HEK293 cells. The note with it: for IC50: Homo sapiens, HEK293, 48 h treatment, MTT assay, read-out: IC50 (µM) ± S.D. HEK293; for Anti-proliferative / inhibitory effects in non-tumoral HEK293 cells: result in words. It is filed as cell-based. The procedure: as §1, §2

The next data set deals with T1, recombinant human topo I (Homo sapiens, UniProt P11387).
T1 construct: purchased TopoGEN, Port Orange, FL, USA
T1 sequence (P11387 1-765): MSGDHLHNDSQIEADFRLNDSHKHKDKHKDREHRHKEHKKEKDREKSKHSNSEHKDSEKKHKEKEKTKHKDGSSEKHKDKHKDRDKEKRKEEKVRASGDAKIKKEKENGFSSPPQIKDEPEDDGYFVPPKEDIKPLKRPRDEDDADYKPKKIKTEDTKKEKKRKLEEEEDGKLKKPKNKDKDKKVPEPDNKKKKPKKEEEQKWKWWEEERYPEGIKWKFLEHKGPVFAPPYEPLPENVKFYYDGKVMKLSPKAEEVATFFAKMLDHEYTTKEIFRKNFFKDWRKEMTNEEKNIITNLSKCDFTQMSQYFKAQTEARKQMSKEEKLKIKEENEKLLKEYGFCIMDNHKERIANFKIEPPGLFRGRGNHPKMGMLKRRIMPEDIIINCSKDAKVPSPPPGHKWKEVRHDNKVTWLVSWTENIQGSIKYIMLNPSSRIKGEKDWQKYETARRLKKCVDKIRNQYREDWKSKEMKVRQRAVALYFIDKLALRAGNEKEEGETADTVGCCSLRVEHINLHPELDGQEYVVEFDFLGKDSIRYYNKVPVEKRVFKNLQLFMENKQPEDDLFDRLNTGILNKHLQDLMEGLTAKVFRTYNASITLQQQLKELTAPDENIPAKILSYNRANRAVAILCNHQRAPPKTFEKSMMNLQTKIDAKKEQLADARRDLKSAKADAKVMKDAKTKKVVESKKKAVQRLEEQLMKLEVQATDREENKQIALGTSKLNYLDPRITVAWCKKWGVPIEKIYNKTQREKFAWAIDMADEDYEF
Kind of data set: Human topoisomerase I (hTopoI) relaxation assay. In kind it is biochemical. To be noted: 50 μM. The procedure:
Human topoisomerase I relaxation assays were performed incubating the supercoiled pHOT1 (used as substrate) with the recombinant human topo I (TopoGEN, Port Orange, FL, USA) and all the tested compounds, according to the guidelines of the manufacturer (TopoGEN, Port Orange, FL, USA), with some modifications.

A further data set concerns the target T2, human topoisomerase II (Homo sapiens, UniProt P11388).
T2 construct: purchased TopoGEN, Port Orange, FL, USA
The experiment in a line: Human topoisomerase II (hTopoII) decatenation assay. It is filed as biochemical. To be noted: 50 μM. The procedure:
Human topoisomerase II decatenation assays were carried out incubating the human topoisomerase II (TopoGEN, Port Orange, FL, USA) with kinetoplast DNA (used as substrate) and all the tested compounds, according to the guidelines of the manufacturer (TopoGEN, Port Orange, FL, USA), with some modifications.

The subject of another data set is MCF-7 cells. The experiment in a line: TUNEL assay in MCF-7 cells. In kind it is cell-based, human. As to the method:
(§3) Cell apoptosis was determined by TdT-mediated dUTP Nick-End Labeling (TUNEL) assay, conducted using DeadEnd Fluorometric TUNEL System (Promega, Milan, Italy) and performed according to the manufacturer’s instructions. […] After fixation, cells were permeabilized in 0.2% Triton X-100 solution in PBS for 5 min. After washing twice with washing buffer for 5 min, the cells were covered with equilibration buffer at room temperature for 5–10 min. The labeling reaction was performed using terminal deoxynucleotidyl transferase end-labeling TdT and fluorescein-dUTP cocktail for each sample and incubated for 1 h at 37 ◦C where TdT catalyzes the binding of fluorescein-dUTP to free 3′OH ends in the nicked DNA. After rinsing, cells were washed with 2 × SSC solution buffer and subsequently incubated with 4′,6-Diamidino-2-Phenylindole (DAPI, Sigma-Aldrich, Milan, Italy) to stain nuclei and analyzed using the Cytation 3 Cell Imaging Multimode Reader (BioTek, Winooski, VT, USA). Statistical analysis was done using ANOVA followed by Newman–Keuls’ testing to determine differences in means. p < 0.05 was considered as statistically significant.

The test system of another data set is SkBr3 cells. Kind of data set: TUNEL assay in SkBr3 cells. In kind it is cell-based, human. As to the method: as §3
Setting [5] is: MCF7, 48 h treatment, read-out: IC50 (µM) ± S.D. MCF-7.
Setting [6] is: SK-BR-3, 48 h treatment, read-out: IC50 (µM) ± S.D. SkBr3.
Setting [7] is: 50 µM for 48 h (data not shown).

T2 sequence (P11388 whole entry): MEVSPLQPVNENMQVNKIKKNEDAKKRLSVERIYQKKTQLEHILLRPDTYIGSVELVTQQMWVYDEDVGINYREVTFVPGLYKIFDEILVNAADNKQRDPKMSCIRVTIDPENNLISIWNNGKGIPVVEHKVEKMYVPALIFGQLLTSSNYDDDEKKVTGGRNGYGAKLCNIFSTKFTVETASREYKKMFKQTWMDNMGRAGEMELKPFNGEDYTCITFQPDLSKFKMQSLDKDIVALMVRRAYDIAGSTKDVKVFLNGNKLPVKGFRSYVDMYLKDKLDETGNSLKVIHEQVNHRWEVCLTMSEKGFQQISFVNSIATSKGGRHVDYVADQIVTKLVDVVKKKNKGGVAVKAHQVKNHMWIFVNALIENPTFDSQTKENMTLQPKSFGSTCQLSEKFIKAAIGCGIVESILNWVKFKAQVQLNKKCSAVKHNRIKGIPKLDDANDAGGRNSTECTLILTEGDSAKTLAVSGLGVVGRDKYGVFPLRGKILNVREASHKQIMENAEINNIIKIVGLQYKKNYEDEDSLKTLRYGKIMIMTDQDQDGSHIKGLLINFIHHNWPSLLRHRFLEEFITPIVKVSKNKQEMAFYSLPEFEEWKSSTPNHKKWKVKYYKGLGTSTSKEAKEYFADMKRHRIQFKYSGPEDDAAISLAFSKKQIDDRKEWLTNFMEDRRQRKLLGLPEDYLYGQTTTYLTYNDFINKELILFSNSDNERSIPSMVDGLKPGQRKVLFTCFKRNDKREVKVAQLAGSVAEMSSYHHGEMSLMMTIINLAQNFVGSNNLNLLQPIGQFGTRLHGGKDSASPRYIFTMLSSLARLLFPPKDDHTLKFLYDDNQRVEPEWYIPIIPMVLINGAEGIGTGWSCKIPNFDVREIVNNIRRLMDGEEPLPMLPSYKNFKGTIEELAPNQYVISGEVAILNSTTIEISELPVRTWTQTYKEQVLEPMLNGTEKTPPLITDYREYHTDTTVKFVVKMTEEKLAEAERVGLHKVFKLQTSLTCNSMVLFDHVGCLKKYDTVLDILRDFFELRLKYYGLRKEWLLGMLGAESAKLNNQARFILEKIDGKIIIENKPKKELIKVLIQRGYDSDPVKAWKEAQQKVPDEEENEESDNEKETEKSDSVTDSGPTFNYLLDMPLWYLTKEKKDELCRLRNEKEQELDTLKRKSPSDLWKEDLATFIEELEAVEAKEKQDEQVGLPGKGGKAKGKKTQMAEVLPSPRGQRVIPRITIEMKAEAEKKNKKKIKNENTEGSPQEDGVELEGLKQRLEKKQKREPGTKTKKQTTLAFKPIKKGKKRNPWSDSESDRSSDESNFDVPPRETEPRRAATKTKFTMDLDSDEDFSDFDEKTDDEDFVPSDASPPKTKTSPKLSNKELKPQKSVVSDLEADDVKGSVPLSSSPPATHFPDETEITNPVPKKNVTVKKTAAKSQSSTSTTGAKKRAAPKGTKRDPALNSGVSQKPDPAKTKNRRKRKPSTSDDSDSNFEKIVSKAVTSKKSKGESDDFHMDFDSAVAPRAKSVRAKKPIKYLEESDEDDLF

On to `Oc1ccc(C=Cc2cc(O)cc(O)c2)cc1` [resveratrol, 3, 4′,5-trihydroxy-stilbene], for which, in data set [1], the “In vitro bioavailability (%) 4 h pH 7.0” value amounted to 23 ± 0.8%; the “In vitro bioavailability (%) 2 h pH 1.0” value is 12 ± 0.6%; the “In vitro bioavailability (%) Total 6 h” value is 35% and 35 ± 1.1%. Besides, in data set [2] (setting [5]), the concentration for half-maximal inhibition (IC50) was above 90 µM. Also, in data set [3] (setting [6]), the IC50 is above 90 µM. The IC50 in data set [4] was above 90 µM. On recombinant human topo I, the “Inhibition of hTopoI (relaxation of supercoiled DNA)” value is “no inhibition of hTopoI was observed”. Also, on human topoisomerase II, the “Inhibition of hTopoII activity (kDNA decatenation)” value (shortened to “Inhibition of hTopoII activity”) is “inhibited the hTopoII”.

In the case of `O=C(O)c1ccc(/N=C/c2cc(O)ccc2O)cc1` [Compound 3, (E)-4-(2,5-dihydroxybenzylidene)-imino-benzoic acid], in data set [1], the “In vitro bioavailability (%) 4 h pH 7.0” value is 31% and 31 ± 1.1%; the “In vitro bioavailability (%) 2 h pH 1.0” value was 16% and 16 ± 0.7%; the “In vitro bioavailability (%) Total 6 h” value is 47% and 47 ± 1.6%. Moreover, the IC50 in data set [2] (setting [5]) was 12 µM. Also, in data set [3] (setting [6]), the IC50 came to 15 µM. In data set [4], the IC50 is above 90 µM and the “Anti-proliferative / inhibitory effects in non-tumoral HEK293 cells” value was “did not elicit inhibitory effects; also recorded: did not induce inhibitory effects”. In the data set on MCF-7 cells (10 μM for 24 h, versus vehicle), the “Percentage of TUNEL-positive cells, MCF-7” value is given as “increased the percentage”. Besides, in the data set with SkBr3 cells (10 μM for 24 h, versus vehicle), the “Percentage of TUNEL-positive cells, SkBr3” value was “increased the percentage”. For the same compound, the “Inhibition of hTopoI (relaxation of supercoiled DNA)” value on recombinant human topo I was “no inhibition of hTopoI was observed”. In addition, the “Inhibition of hTopoII activity” value on human topoisomerase II is “able to inhibit”.

With `O=C(O)c1ccc(/N=C/c2cc(O)cc(O)c2)cc1` [Compound 6, (E)-4-(3,5-dihydroxybenzylidene)-imino-benzoic acid], the IC50 in data set [2] (setting [5]), in data set [3] (setting [6]) and in data set [4] was above 90 µM in each case.

As to `O=C(O)c1ccc(/N=C/c2cc(O)ccc2O)cc1` [Compound 4, (E)-4-(2,5-dihydroxybenzylidene)-imino-sodium benzoate], in data set [1], the “In vitro bioavailability (%) 4 h pH 7.0” value is 28% and 28 ± 0.9%; the “In vitro bioavailability (%) 2 h pH 1.0” value was 17% and 17 ± 0.8%; the “In vitro bioavailability (%) Total 6 h” value is 45% and 45 ± 1.3%. Moreover, the IC50 in data set [2] (MCF7, treatment time not given, read-out: IC50, cytotoxic activity, MCF-7) amounted to 50 µM. Moreover, in data set [3] (SK-BR-3, treatment time not given, read-out: IC50, cytotoxic activity, SkBr3), the IC50 is 62 µM. For the same compound, the “Anti-proliferative / inhibitory effects in non-tumoral HEK293 cells” value in data set [4] is listed as “did not elicit anti-proliferative effects; also recorded: did not induce inhibitory effects”. Further, in the data set on MCF-7 cells (setting [7]), the “TUNEL staining, MCF-7” value was “positive for TUNEL staining”. In addition, the “TUNEL staining, SkBr3” value in the data set on SkBr3 cells (setting [7]) was “positive for TUNEL staining”. The “Inhibition of hTopoI (relaxation of supercoiled DNA)” value at recombinant human topo I is reported as “no inhibition of hTopoI was observed”. Further, at human topoisomerase II, the “Inhibition of hTopoII activity” value is reported as “able to inhibit”.
